Row | melting point [°C] | Compound
1 | 195 to 197 | CC(=O)Nc1ccc2c(c1)CC1(OC1c1ccccc1)C2=O (centres undefined)
2 | 162 to 163 | Cc1ccc(S(=O)(=O)n2cc(/C=C/C(=O)N(C)C)nc2C)cc1
3 | 179 to 180 | CCCCc1nc2cccc(C(=O)OCc3ccncc3)c2n1Cc1ccc(-c2ccccc2-c2nnn[nH]2)cc1
4 | > 300 | NS(=O)(=O)c1cc2[nH]c(=O)ccc2s1
5 | 168 to 176 | CCCCCCCCCN(CCCCC)CCC(=O)O
6 | 232 to 234 | Cc1cc(Nc2cncc(-c3ccccc3)n2)n[nH]1
7 | 200 to 201 | CN1CCN(C2=Nc3ccccc3Nc3cscc32)CC1
8 | 174 to 177 | OC1(c2ccncc2)c2ccccc2CCc2ccccc21
9 | 180 to 195 | C[C@@H](NC(=O)c1c[nH]c2ncc(-c3nn(C)c4cc(C(C)(C)C)ccc34)nc12)C(=O)N1CC(C#N)C1
10 | 89 to 92 | CC(C)(C#N)c1cc(C#N)cc(Cn2ccnc2)c1
11 | 119 | CCCCN1CC2CN(c3ccc([N+](=O)[O-])cc3[N+](=O)[O-])CC(C1)C2(C)C
12 | 65 | CC(C)(C)OC(=O)C(Cl)=CC1C(C(=O)O)C1(C)C (centres undefined)
13 | 208 | NCCc1cccc(N2C(=O)N(c3c(Cl)cccc3Cl)Cc3cnc(Nc4ccccc4)nc32)c1
14 | 99 | CC(=O)Oc1cccc(CCNC(=O)/C=C/c2cccnc2)c1
15 | 100 to 102 | Cc1nccn1C(=O)NC1CCCCC1
16 | 100 | COc1cc(Cl)ccc1CC(=O)O
17 | 48 to 49 | CC1=NCN(c2ccc(Br)s2)O1
18 | 95 to 96 | CC(C)c1c(Cl)nc(NC=O)nc1Cl
19 | 218 to 220 | Brc1c(NC2=NCCN2)ccc2c1NCCN2
20 | 110 to 111 | CCCc1c(OCc2ccc(CSC#N)cc2)ccc(C(C)=O)c1O
21 | 125 | Cc1cc(COc2c(Cl)cc(CSc3ccc4ccccc4c3)cc2Cl)oc(=O)c1
22 | 145 to 146 | COc1ccc(NS(=O)(=O)c2cc(OC)c(OC)c(OC)c2)cc1O
23 | 165 | CC(=O)Nc1ccc(-c2cc(C(=O)c3ccccc3)sc2N2CCOCC2)cc1
24 | 178 to 181 | O=C1CCn2c3c(c4cccc1c42)CCN(C(=O)c1ccccc1)CC3

Row | melting point [°C] | Compound
25 | 221 to 224 | O=C(O)c1ccc(-c2cccc3ccccc23)cc1
26 | 66.5 to 68 | Cc1nc2c(CCCc3ccccc3)cccn2c1CC#N
27 | > 360 | N#Cc1c(N)nc2ccc([N+](=O)[O-])cc2c1O
28 | 159 to 160 | CCOC(=O)c1c(NCC(=O)c2ccc(C(F)(F)F)cc2)c2c(Cl)cc(Cl)cc2n1C(=O)OC(C)(C)C
29 | 275 to 285 | CON=C(C)c1cc(C#N)c(=O)[nH]c1C
30 | 118 to 120 | CCCCCCCNC(=O)c1cnc2cccc(C)n2c1=O
31 | 144 to 145 | Cc1nnc(C=Cc2ccccc2OCC(O)CNC2CC2)s1 (centres undefined)
32 | 111 to 113 | CC(C)CC1(C(N)C(=O)OC(C)(C)C)CCN(CCc2ccccc2)C1=O (centres undefined)
33 | 60 to 62 | CS(=O)(=O)NCC1CC2C=CC1C2 (centres undefined)
34 | 99 to 103 | C/C=C/C(=O)OC(COc1ccc(C(=O)c2ccccc2)c(O)c1)COc1ccc(C(=O)c2ccccc2)c(O)c1
35 | 75 to 78 | CCOC(=O)c1c(C)nc(NN)c2nnn(CC)c12
36 | 164 to 166 | Cc1cc(O)c(N2CC(=O)NS2(=O)=O)c(F)c1
37 | 109 | CCCC1CCC(O)CC1 (centres undefined)
38 | 48 to 49 | O=C1CC(C(=O)C(F)(F)F)Cc2ccccc21 (centres undefined)
39 | 258 | COCc1c(C(=O)c2ccccc2)ncc2[nH]c3ccc(O)cc3c12
40 | 144 to 145 | O=C(O)Cc1ccc(CCOc2ccc(CC3SC(=O)NC3=O)cc2)nc1 (centres undefined)
41 | 288 | O=C1Cc2cc(CCN3CCN(c4nsc5ccccc45)CC3)ccc2N1
42 | 182 to 184 | O=C1N(C(c2ccccc2)c2ccccc2)c2ccccc2C12COc1ccc(F)cc12 (centres undefined)
43 | 196 to 197 | CCCc1nc2c(N)nc3cccnc3c2n1CCCC(=O)N1CCOCC1
44 | 104 to 106 | COC(=O)CCc1cc(C(=O)c2ccccc2Cl)c(NC(=O)CBr)s1
45 | 101 to 102 | CC(C=CC(C)C(C)(C)O)C1CCC2C(=O)CCCC21C (centres undefined)
46 | 146 to 147 | O=C(C=C1CCCN1)c1ccc(Cl)cc1
47 | 118 to 119 | CC1(OC(=O)c2ccco2)C=CC(COC(=O)c2ccco2)=CN1 (centres undefined)
48 | 204 to 206 | O=C1OC(c2ccccc2)C(c2ccccc2)=C1C(=O)N1CCOCC1 (centres undefined)

Row | melting point [°C] | Compound
49 | 131 to 133 | Cc1ccc(-c2cnc(-c3cc(C(F)(F)F)cs3)s2)s1
50 | 173 to 175 | CCC(C)c1ccc(-n2c(-c3ccc(OCCO)cc3)nc3ccccc3c2=O)cc1 (centres undefined)
51 | 94 to 96 | COC(=O)c1c(C)nc(C)c(C(=O)OC)c1-c1ccccc1F
52 | 158 to 160 | CN1CCC(c2c[nH]c3ccc(C4CN=CS4)cc23)CC1 (centres undefined)
53 | 104 to 105 | O=C1C(=O)c2ccc(Br)cc2C2=C1SCC1(CCN(CC(O)COc3ccc4cc(Br)ccc4c3)CC1)O2 (centres undefined)
54 | 171 to 172 | COc1cc(/C=C2/C(=O)OC[C@H]2Cc2cc(OC)c(OCc3ccc([N+](=O)[O-])cc3)c(OCc3ccc([N+](=O)[O-])cc3)c2)cc(OC)c1OC
55 | 71.5 to 73 | CC1CC(=O)N[C@@H]2CCc3cc(Cl)ccc3[C@@H]12 (some centres undefined)
56 | 39 to 43 | CC(OCc1ccc2ccccc2c1)(C(=O)Cl)C(F)(F)F (centres undefined)
57 | 140 | O=C1NC(C2CCCCC2)C1O (centres undefined)
58 | 76 to 78 | CCC1(CC)c2ccc(C)cc2C(CC)(CC)N1OC(C)=O
59 | 263 to 265 | CN(C(=O)C(F)(F)F)C1(C)CN(c2nc3c(cc2F)c(=O)c(C(=O)O)cn3C(C)(C)C)C1
60 | 222 to 224 | COc1cc(C(=O)NS(=O)(=O)c2ccccc2C)ccc1Cc1c(Cl)n(C)c2ccc(CCNC(=O)N(C)C)cc12
61 | 77 to 79 | CC(C)C(CN1CCCC1)C(=O)c1cc(-c2ccccc2)no1 (centres undefined)
62 | 83.5 | CCOC(=O)c1cc(C(=O)OCC)cc([N+](=O)[O-])c1
63 | 84 to 85 | C=Cc1c(CC)nc(CC)c(CO)c1-c1ccccc1
64 | 57 to 58 | CCCCCCCCCCCCNC(=O)c1cc(-c2cccc(OC)c2)c(OCC(=O)O)c(-c2cccc(OC)c2)c1
65 | 162 to 163 | CC(=O)Oc1ccc(C2(c3ccc(OC(C)=O)cc3)C(Cl)(Cl)C23CCCCC3)cc1
66 | 92.8 to 93.6 | CCCc1cc(C=O)c(O)cc1O
67 | 147 to 149 | COC(=O)C(C(=O)OC)c1ccc(C(=O)O)cc1[N+](=O)[O-]
68 | 197 to 198 | Cc1c(C)c2c(c(C)c1NC(=O)CC(C)(C)C)C(N1CCCC1)C(C)(C)O2 (centres undefined)
69 | 162 to 163 | N#CC(=CO)c1ccc(Cl)cc1Cl
70 | 111 to 113 | CCSc1ccc(-c2ncco2)c2c1C(=O)CC(C)C2 (centres undefined)

Row | Compound | melting point [°C]
71 | O=C(OCC1CC1)c1ncn2c1[C@@H]1CCN1C(=O)c1c(Br)cccc1-2 | 212 to 213
72 | COC(=O)C1(Cl)CC1C(=O)O (centres undefined) | 77.7 to 79.1
73 | CCc1nc(C)cn1CC1CC2c3cccc4[nH]cc(c34)CC2N(C)C1 (centres undefined) | 172 to 174
74 | COc1cccc(-c2ccc3c(c2)c(C(=O)C(=O)O)cn3Cc2ccc(C(C)(C)C)cc2)c1 | 86 to 87

Source: a melting point compilation (Tetko et al.; mined from patent text by program, amines drawn as free bases though some values may be those of a salt)
